The source of these data is paper PMC7515946, “Targeting of Perforin Inhibitor into the Brain Parenchyma Via a Prodrug Approach Can Decrease Oxidative Stress and Neuroinflammation and Improve Cell Survival” (Molecular Neurobiology, 2020).

For one data set, the target named is T1, LAT1 (Mus musculus, UniProt Q9Z127).
T1 construct: endogenous in cells; host or cells: mouse primary astrocytes (C57BL/6JOlaHsd), cortex and hippocampi
The data set can be described thus: Ability to bind to LAT1: inhibition of [14C]-L-leucine uptake in astrocytes. Type of data set: cell-based. To be noted: mouse primary astrocytes, 0.76 μM [14C]-L-leucine, 5 min, 37 °C. As to the method:
For the transporter-binding studies, the astrocytes were seeded on 24-well plates with a density of 10 × 10^4 cells/well 3 days before the experiments. After removal of the culture medium, the cells were carefully washed with pre-warmed HBSS (Hank’s balanced salt solution) containing choline chloride (125 mM), KCl (4.8 mM), MgSO4 (1.2 mM), KH2PO4 (1.2 mM), CaCl2 (1.3 mM), glucose (5.6 mM), and HEPES (25 mM) adjusted to pH 7.4 with 1 M NaOH. The cells were pre-incubated with 500 μL of pre-warmed HBSS at 37 °C for 5 min before the experiments. To study the ability of studied compounds to inhibit the uptake of a known LAT1 substrate, the cells were incubated at 37 °C for 5 min with an uptake buffer (HBSS, 250 μL) containing 0.76 μM (0.25 mCi/mL or […]) of [^14C]-L-leucine (PerkinElmer, Waltham, MA, USA) and 0.1–1000 μM of studied compound (or HBSS as blank). After incubation, the uptake was stopped by adding 500 μL of ice-cold HBSS, and the cells were washed two times with ice-cold HBSS (2 × 500 μL). The cells were then lysed with 500 μL of NaOH (0.1 M) for 60 min and the lysate was mixed with 3.5 mL of Emulsifier-Safe cocktail (Ultima Gold, PerkinElmer, Waltham, MA, USA). The radioactivity in the cells was measured by liquid scintillation counting (MicroBeta^2 counter, PerkinElmer Waltham, MA, USA). Half of the maximum inhibitory concentration (IC50) values were calculated by nonlinear regression analysis (fitting the curve to log (concentration) vs. remaining normalized viability).

On the set-up of data set [1]: method as in PMID 31492955. To be noted: cited from earlier work.
The test system of data set [2] is MCF-7 human breast adenocarcinoma cells. The data set is described as follows: Cell viability of MCF-7 cells with cisplatin co-treatment (resazurin). Type of data set: cell-based. To be noted: 10–400 μM together with 100 μM cisplatin, 72 h.
Data set [3] concerns the target T2, acetylcholinesterase (AChE) (Mus musculus, UniProt P21836).
T2 construct: mouse brain S9 fraction was prepared by homogenizing freshly collected mouse brain; from tissue; host or cells: mouse brain S9 fraction (9000 x g supernatant)
T2 sequence (P21836 32-614): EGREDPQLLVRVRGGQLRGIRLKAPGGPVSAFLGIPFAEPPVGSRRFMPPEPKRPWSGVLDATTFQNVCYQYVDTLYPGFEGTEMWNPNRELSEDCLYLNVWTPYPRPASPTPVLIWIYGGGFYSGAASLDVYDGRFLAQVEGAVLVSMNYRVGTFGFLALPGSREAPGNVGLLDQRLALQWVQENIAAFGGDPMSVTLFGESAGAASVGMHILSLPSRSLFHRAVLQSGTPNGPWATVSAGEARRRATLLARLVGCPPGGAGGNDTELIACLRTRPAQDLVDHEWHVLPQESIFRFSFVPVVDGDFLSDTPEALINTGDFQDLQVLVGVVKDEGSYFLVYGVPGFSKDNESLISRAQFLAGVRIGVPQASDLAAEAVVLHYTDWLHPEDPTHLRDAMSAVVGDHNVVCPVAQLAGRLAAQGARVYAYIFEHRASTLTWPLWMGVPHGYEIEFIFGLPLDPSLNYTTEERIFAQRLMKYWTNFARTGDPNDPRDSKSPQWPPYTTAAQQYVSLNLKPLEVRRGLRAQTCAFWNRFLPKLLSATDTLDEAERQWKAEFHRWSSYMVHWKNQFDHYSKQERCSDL
The data set is described as follows: biochemical. Conditions: for IC50: mouse brain S9 fraction, acetylthiocholine 1 mM, 30 min endpoint. As to the method:
(§1) Briefly, mouse brain S9 fraction was prepared by homogenizing freshly collected mouse brain with 50 mM Tris-buffered saline (TBS) (pH 7.4) (1:4 w/v), centrifuging the homogenate at 9000 × g for 20 min at 4 °C and collecting the supernatant. The supernatant was then diluted 1:10 with phosphate buffer (100 mM; pH 7.0) and mixed with Ellman’s reagent (DTNB; 1 mM) and studied compounds in DMSO (DMSO concentration was less than 0.5%) on a 96-well plate as 3 parallel assays.
According to the Hanes–Woolf plots, the ratio of initial substrate concentration to the reaction velocity ([S]/v) was plotted against the substrate concentration (μM).

Details of data set [4]: method as in PMID 26705152. To be noted: cited from earlier work.
Data set [5] deals with T3, butyrylcholinesterase (BChE) (Mus musculus, UniProt Q03311).
T3 construct: mouse brain S9 fraction was prepared by homogenizing freshly collected mouse brain; from tissue; host or cells: mouse brain S9 fraction (9000 x g supernatant)
T3 sequence (Q03311 30-603): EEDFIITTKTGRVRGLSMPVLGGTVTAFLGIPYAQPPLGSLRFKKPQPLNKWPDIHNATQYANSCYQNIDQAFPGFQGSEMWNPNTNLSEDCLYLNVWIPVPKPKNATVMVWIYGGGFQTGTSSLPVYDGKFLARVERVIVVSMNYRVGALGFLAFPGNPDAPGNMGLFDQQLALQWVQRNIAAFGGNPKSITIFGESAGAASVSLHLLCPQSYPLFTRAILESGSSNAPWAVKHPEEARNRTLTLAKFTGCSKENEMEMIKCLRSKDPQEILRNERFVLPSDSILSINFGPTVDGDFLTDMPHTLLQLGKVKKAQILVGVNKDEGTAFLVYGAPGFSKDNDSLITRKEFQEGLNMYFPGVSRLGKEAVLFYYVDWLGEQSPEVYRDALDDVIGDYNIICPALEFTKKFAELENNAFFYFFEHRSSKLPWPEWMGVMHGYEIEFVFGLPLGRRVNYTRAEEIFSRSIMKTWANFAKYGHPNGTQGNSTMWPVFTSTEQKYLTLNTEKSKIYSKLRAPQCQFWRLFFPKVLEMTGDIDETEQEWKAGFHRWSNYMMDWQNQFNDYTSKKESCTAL
It is filed as biochemical. Conditions: mouse brain S9 fraction, butyrylthiocholine 1 mM, 30 min endpoint. As to the method:
as §1

In another data set the test system is primary astrocytes. The data set can be described thus: Ability to affect cell growth of primary astrocytes (resazurin). Type of data set: cell-based. To be noted: 72 h.
Data set [6] addresses T4, purified human β-site amyloid precursor protein (APP) cleaving enzyme 1 (BACE1) (Homo sapiens, UniProt P56817).
T4 construct: purchased AnaSpec, Inc. (Fremont, CA, USA), SensoLyte 520 BACE1 Assay kit
The data set can be described thus: BACE1 FRET inhibition assay. It is filed as biochemical. To be noted: 1 and 10 μM, respectively, 30 min. The text has this:
A fluorometric assay was used to screen the inhibitory effect of the studied compounds on purified human β-site amyloid precursor protein (APP) cleaving enzyme 1 (BACE1) using a fluorescence resonance energy transfer (FRET) peptide technique (SensoLyte© 520 BACE1 Assay kit, AnaSpec, Inc., Fremont, CA, USA) according to the manufacturer’s protocol. […] The sequence of the FRET peptide has been derived from the β-secretase cleavage site of β-amyloid precursor protein (APP) with Swedish mutation, which enhances β-secretase to process APP resulting in an early onset of AD. Thus, active β-secretase cleaved the FRET substrate into two separate fragments resulting in the release of HiLyte™ Fluor 488 fluorescence that was measured by the Envision plate reader (EnVision, Perkin Elmer, Waltham, MA, USA) at λex 490 nm and λem 520 nm.

Values joined by “and” are separate entries in the source; they are usually repeats but may differ in a detail not shown here. Identical values can stand only once. “Also recorded” adds a separate entry of the source.

T1 sequence (Q9Z127 whole entry): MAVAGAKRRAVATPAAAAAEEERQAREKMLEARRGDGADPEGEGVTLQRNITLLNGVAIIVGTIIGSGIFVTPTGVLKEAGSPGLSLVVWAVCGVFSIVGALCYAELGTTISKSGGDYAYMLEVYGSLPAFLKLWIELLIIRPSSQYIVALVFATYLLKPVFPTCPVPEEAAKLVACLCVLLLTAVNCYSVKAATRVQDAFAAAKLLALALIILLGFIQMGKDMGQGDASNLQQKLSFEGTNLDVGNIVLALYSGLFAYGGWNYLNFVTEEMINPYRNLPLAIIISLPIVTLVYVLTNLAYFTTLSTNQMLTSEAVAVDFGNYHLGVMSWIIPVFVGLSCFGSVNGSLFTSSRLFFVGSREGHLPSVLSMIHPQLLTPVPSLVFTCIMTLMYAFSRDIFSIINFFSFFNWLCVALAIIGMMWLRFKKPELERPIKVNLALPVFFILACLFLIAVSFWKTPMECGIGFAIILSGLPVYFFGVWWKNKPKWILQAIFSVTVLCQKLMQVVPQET
T1 sequence (P10852 whole entry partner): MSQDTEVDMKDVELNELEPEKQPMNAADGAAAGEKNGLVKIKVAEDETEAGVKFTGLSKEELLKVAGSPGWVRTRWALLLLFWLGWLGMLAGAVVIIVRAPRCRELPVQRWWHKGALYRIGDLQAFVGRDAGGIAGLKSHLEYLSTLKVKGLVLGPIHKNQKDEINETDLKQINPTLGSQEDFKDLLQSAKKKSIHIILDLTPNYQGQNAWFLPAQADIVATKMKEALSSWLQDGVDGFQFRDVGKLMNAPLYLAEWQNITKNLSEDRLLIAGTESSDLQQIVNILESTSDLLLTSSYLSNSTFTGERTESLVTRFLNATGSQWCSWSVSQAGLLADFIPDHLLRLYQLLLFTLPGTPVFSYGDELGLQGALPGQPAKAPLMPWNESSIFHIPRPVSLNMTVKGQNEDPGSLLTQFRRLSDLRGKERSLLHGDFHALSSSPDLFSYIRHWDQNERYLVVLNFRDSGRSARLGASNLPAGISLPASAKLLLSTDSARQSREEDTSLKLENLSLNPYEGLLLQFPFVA
T4 sequence (P56817 22-501 limits assumed): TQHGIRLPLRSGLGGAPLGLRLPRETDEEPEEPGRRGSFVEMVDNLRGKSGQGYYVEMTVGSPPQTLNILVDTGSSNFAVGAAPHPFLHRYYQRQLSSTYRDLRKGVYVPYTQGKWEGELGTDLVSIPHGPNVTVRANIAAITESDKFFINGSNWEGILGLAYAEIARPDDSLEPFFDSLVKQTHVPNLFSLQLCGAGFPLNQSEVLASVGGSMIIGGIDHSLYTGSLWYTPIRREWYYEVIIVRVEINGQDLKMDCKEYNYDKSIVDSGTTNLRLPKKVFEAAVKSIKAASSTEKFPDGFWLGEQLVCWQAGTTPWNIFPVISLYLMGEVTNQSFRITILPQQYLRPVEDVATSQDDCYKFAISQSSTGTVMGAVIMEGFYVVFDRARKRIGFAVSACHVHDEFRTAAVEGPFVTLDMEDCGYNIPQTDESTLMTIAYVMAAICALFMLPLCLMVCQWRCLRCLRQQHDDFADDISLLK

For the compound `N[C@H](Cc1cccc(C(=O)OCc2ccc(-c3ccc(-c4ccc5c(c4)COC5=O)s3)cc2)c1)C(=O)O` [PFI-PD], the IC50 at LAT1 was 4 µM and 3.5 µM; in data set [3], 8 µM and 8.15 µM. The “Bioconversion half-life in primary mouse astrocyte homogenate” value in data set [1] is given as “approximately 6 h”. Also, in data set [2], the “Reversal of cisplatin-induced effects on MCF-7 cell viability” value is listed as “able to revert the cisplatin-induced effects”. Moreover, the “Type of AChE inhibition” value in data set [3] (Hanes–Woolf plot) is recorded as “mixed-type”. For the same compound, the “Vmax of AChE reaction in presence of inhibitor” value in data set [3] (mouse brain S9, acetylthiocholine, PFI-PD (12 μM), without inhibitor 2.21 ± 0.01) is 2.17 nmol/min/mg protein and 2.17 ± 0.02 nmol/min/mg protein. For the same compound, in data set [4], the “Bioconversion half-life in rat liver S9 subcellular fraction” value is “approximately 55 min”. Also, the “BChE IC50 value” in data set [5] is “No inhibition”. In addition, the “Increase of astrocyte cell growth” value in the data set with primary astrocytes (5–100 μM, vs control cells) is listed as 35–87%. In the data set on primary astrocytes (5–400 μM), the “Effect on astrocyte cell growth / viability” value is “did not exert any inhibitory effects; also recorded: did not affect the cell viability”.

For `O=C1OCc2cc(-c3ccc(-c4ccc(CO)cc4)s3)ccc21` [PFI], the “IC50 in astrocytes (inhibition of [14C]-L-leucine uptake)” value on LAT1 was “did not exhibit any interaction with LAT1; also recorded: No inhibition”. The “Reversal of cisplatin-induced effects on MCF-7 cell viability” value in data set [2] is “not able to revert the cisplatin-induced effects”. Further, in data set [3], the IC50 was 12 µM and 12.3 µM. For the same compound, the “BChE IC50 value” in data set [5] is reported as “No inhibition”. Moreover, in data set [6], the “Inhibition of BACE1 activity” value is 71–96%. Besides, the “Inhibition of astrocyte cell growth” value in the data set on primary astrocytes (concentrations over 100 μM, vs untreated control) is given as 38–68%.
